# From ChEMBL document CHEMBL6096703 (J Med Chem, 2025)
# Tests used:
# [1] = Clearance in male Balb/c mouse at 1 mg/kg, iv measured upto 96 hrs by LC-MS/MS analysis; type: ADME, organism-based; conditions: in vivo, iv, 1 mg/kg, 96 h
# MDA-MB-436 [2] = assay: Induction of cell cycle arrest in human MDA-MB-436 cells assessed as accumulation of cells at G2/M phase at 1 nM incubated for 3 days by PI staining based flow cytometric analysis (Rvb =24.88%); type: functional; conditions: time 3 day
# MDA-MB-436 [3] = assay: Antitumor activity against luciferase tagged human MDA-MB-436 cells xenografted in female NOD-SCID mouse assessed as median survival time at 10 mg/kg, po administered once a day for 34 days; type: functional; conditions: time 34 day
# [4] = Acute toxicity in Kunming mouse assessed as change in body weight at 30 to 100 mg/kg administered via gavage once every other day for 14 days; type: organism-based; conditions: in vivo, po, 336 h, dose 30-100 mg/kg, time 14 day
# [5] = Half life in rat at 2.5 mg/kg, iv measured upto 96 hrs by LC-MS/MS analysis; type: ADME, organism-based; conditions: in vivo
# MDA-MB-436 [6] = assay: Antitumor activity against luciferase tagged human MDA-MB-436 cells xenografted in female NOD-SCID mouse assessed as median survival time at 3 mg/kg, po administered once a day for 34 days; type: functional; conditions: time 34 day
# MDA-MB-436 [7] = assay: Induction of cell cycle arrest in human MDA-MB-436 cells assessed as accumulation of cells at G2/M phase at 100 nM incubated for 3 days by PI staining based flow cytometric analysis (Rvb =24.88%); type: functional; conditions: time 3 day
# [8] = Half life in male Balb/c mouse at 1 mg/kg, po measured upto 96 hrs by LC-MS/MS analysis; type: ADME, organism-based; conditions: in vivo, po, 1 mg/kg, 96 h
# [9] = Acute toxicity in Kunming mouse assessed as change in cellular morphology of heart at 100 mg/kg administered once every other day via gavage for 14 days by H and E staining based analysis; type: organism-based; conditions: in vivo, po, 336 h, time 14 day
# [10] = Acute toxicity in Kunming mouse assessed as mortality at 100 to 300 mg/kg administered orally via gavage for 14 days; type: organism-based; conditions: in vivo, po, 336 h, dose 100-300 mg/kg, time 14 day
# MDA-MB-436 [11] = assay: Induction of cell cycle arrest in human MDA-MB-436 cells assessed as accumulation of cells at G2/M phase at 10 nM incubated for 3 days by PI staining based flow cytometric analysis (Rvb =24.88%); type: functional; conditions: time 3 day
# [12] = Sub-acute toxicity in Kunming mouse assessed as change ALTL level at 30 to 100 mg/kg administered via gavage once every other day for 14 days; type: organism-based; conditions: in vivo, po, 336 h, dose 30-100 mg/kg, time 14 day
# [13] = biological target: Poly [ADP-ribose] polymerase 1 (Homo sapiens, UniProt P09874); assay: Inhibition of PARP1 (unknown origin) at 1 nM preincubated with compound for 10 mins followed by DNA and NAD+ addition and measured after 60 mins by chemiluminescence based envision reader analysis relative to control; conditions: time 70.0 min
# Sequence of Poly [ADP-ribose] polymerase 1 (P09874 whole entry): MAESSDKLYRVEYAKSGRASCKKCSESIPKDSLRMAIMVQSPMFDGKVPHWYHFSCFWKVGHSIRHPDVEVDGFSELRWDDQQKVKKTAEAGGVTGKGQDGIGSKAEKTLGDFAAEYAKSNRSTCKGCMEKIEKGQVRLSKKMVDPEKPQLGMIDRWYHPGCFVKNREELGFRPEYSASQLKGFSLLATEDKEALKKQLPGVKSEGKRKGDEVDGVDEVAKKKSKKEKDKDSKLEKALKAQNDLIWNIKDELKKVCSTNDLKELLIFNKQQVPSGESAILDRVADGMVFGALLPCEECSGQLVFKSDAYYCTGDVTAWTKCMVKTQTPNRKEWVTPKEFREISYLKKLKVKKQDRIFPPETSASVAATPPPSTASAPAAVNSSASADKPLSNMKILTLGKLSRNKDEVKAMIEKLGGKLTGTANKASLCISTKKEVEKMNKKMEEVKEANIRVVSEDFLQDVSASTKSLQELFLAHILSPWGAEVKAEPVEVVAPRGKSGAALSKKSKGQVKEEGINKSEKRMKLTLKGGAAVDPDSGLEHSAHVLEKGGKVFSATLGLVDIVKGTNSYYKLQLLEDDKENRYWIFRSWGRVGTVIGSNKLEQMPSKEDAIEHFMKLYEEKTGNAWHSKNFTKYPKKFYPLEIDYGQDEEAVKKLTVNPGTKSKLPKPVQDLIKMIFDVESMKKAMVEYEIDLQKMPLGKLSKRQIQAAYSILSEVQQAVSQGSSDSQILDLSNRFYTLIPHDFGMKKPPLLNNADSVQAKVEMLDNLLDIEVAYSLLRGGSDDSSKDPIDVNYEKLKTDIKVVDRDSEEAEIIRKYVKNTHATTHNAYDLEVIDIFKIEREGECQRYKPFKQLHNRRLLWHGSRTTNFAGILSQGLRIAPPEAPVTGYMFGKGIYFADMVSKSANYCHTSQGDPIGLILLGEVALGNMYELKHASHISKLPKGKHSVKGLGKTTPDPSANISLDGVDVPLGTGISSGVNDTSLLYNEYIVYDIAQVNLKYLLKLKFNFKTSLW
# [14] = Toxicity in female NOD/SCID mouse xenografted with human MDA-MB-436 cells assessed as histological changes in liver at 3 mg/kg, po administered once every other day for 28 days by H and E staining based analysis; type: organism-based; conditions: in vivo, 672 h, time 28 day
# [15] = Apparent volume of distribution in rat at 2.5 mg/kg, po measured upto 96 hrs by LC-MS/MS analysis; type: ADME, organism-based; conditions: in vivo
# DLD-1 = assay: Inhibition of colony formation in BRCA2 knockout human DLD-1 cells assessed as reduction in survival rate incubated for 10 days by crystal violet staining based assay; type: functional, cell-based; conditions: dose 0.1-100 nM, time 10.0 day
# [16] = Tmax in rat at 2.5 mg/kg, iv measured upto 96 hrs by LC-MS/MS analysis; type: ADME, organism-based; conditions: in vivo
# [17] = Acute toxicity in Kunming mouse assessed as change in cellular morphology of lung at 100 mg/kg administered once every other day via gavage for 14 days by H and E staining based analysis; type: organism-based; conditions: in vivo, po, 336 h, time 14 day
# [18] = Acute toxicity in Kunming mouse assessed as change in liver structure at 300 mg/kg administered via gavage for 14 days by H and E staining based analysis; type: organism-based; conditions: in vivo, po, 336 h, time 14 day
# MDA-MB-436 [19] = assay: Induction of apoptosis in human MDA-MB-436 cells assessed as early apoptotic cells at 100 nM incubated for 3 days by Annexin V/ PI staining based flow cytometry (reference value: 12.8%); type: functional; conditions: time 3 day
# MDA-MB-436 [20] = assay: Induction of apoptosis in human MDA-MB-436 cells assessed as early apoptotic cells at 1 nM incubated for 3 days by Annexin V/ PI staining based flow cytometry (reference value: 12.8%); type: functional; conditions: time 3 day
# [21] = biological target: Poly [ADP-ribose] polymerase 2 (Homo sapiens, UniProt Q9UGN5); assay: Inhibition of PARP2 (unknown origin) at 1 uM preincubated with compound for 10 mins followed by DNA and NAD+ addition and measured after 60 mins by chemiluminescence based envision reader analysis relative to control; conditions: time 70.0 min
# Sequence of Poly [ADP-ribose] polymerase 2 (Q9UGN5 whole entry): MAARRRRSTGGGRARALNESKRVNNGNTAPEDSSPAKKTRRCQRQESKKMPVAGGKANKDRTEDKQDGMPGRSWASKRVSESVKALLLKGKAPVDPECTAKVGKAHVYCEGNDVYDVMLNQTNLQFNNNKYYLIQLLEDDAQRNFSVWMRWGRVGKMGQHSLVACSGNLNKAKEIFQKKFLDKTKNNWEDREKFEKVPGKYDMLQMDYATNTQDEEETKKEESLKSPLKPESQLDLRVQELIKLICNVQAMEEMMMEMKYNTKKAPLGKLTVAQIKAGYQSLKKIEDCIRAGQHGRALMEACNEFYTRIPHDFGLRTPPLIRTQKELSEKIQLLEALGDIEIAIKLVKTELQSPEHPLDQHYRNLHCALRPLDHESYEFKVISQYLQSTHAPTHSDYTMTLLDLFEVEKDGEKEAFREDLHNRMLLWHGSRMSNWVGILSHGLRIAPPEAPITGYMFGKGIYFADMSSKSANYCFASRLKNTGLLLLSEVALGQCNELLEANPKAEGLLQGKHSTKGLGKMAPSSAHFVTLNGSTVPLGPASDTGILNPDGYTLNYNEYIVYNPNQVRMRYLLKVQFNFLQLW
# [22] = Apparent volume of distribution in rat at 2.5 mg/kg, iv measured upto 96 hrs by LC-MS/MS analysis; type: ADME, organism-based; conditions: in vivo, read-out: Vz
# MDA-MB-436 [23] = assay: Induction of cell cycle arrest in human MDA-MB-436 cells assessed as accumulation of cells at G0/G1 phase at 100 nM incubated for 3 days by PI staining based flow cytometric analysis (Rvb =56.18%); type: functional; conditions: time 3 day
# [24] = Sub-acute toxicity in Kunming mouse assessed as change ALTL level at 100 to 300 mg/kg administered via gavage for 14 days; type: organism-based; conditions: in vivo, po, 336 h, dose 100-300 mg/kg, time 14 day
# [25] = Toxicity in female NOD/SCID mouse xenografted with human MDA-MB-436 cells assessed as histological changes in spleen at 3 mg/kg, po administered once every other day for 28 days by H and E staining based analysis; type: organism-based; conditions: in vivo, 672 h, time 28 day
# [26] = Sub-acute toxicity in Kunming mouse assessed as change CREA2 level at 100 to 300 mg/kg administered via gavage for 14 days; type: organism-based; conditions: in vivo, po, 336 h, dose 100-300 mg/kg, time 14 day
# MDA-MB-436 [27] = assay: Induction of apoptosis in human MDA-MB-436 cells assessed as early apoptotic cells at 10 nM incubated for 3 days by Annexin V/ PI staining based flow cytometry (reference value: 12.8%); type: functional; conditions: time 3 day
# [28] = Sub-acute toxicity in Kunming mouse assessed as change CK level at 100 to 300 mg/kg administered via gavage for 14 days; type: organism-based; conditions: in vivo, po, 336 h, dose 100-300 mg/kg, time 14 day
# [29] = AUC(0 to t) in rat at 2.5 mg/kg, po measured upto 96 hrs by LC-MS/MS analysis; type: ADME, organism-based; conditions: in vivo
# [30] = Sub-acute toxicity in Kunming mouse assessed as change UREAL level at 30 to 100 mg/kg administered via gavage once every other day for 14 days; type: organism-based; conditions: in vivo, po, 336 h, dose 30-100 mg/kg, time 14 day
# [31] = Acute toxicity in Kunming mouse assessed as change in cellular morphology of kidney at 100 mg/kg administered once every other day via gavage for 14 days by H and E staining based analysis; type: organism-based; conditions: in vivo, po, 336 h, time 14 day
# [32] = Half life in male Balb/c mouse at 1 mg/kg, iv measured upto 96 hrs by LC-MS/MS analysis; type: ADME, organism-based; conditions: in vivo, iv, 1 mg/kg, 96 h
# [33] = AUC(0 to t) in rat at 2.5 mg/kg, iv measured upto 96 hrs by LC-MS/MS analysis; type: ADME, organism-based; conditions: in vivo
# [34] = Oral bioavailability in male Balb/c mouse at 1 mg/kg measured upto 96 hrs by LC-MS/MS analysis; type: ADME, organism-based; conditions: in vivo
# [35] = Acute toxicity in Kunming mouse assessed as change in body weight at 100 to 300 mg/kg administered orally via gavage for 14 days; type: organism-based; conditions: in vivo, po, 336 h, dose 100-300 mg/kg, time 14 day
smiles,measurement,setting,value
CCc1cc2ncc(CN3CC=C(c4ccc(C#N)cn4)CC3)cc2[nH]c1=O,CL,[1],0.17 mL/min/kg
same,Activity,MDA-MB-436 [2],28.04%
same,Survival,MDA-MB-436 [3],70 days
same,Activity,[4],Non-toxic
same,half-life,[5],27.8 h
same,Survival,MDA-MB-436 [6],>60 days
same,Activity,MDA-MB-436 [7],37.31%
same,t1/2,[8],76.07 h
same,Activity,[9],Non-toxic
same,Activity,[10],Non-toxic
same,Activity,MDA-MB-436 [11],29.58%
same,Activity,[12],Non-toxic
same,inhibition,[13],93.6%
same,Activity,[14],Non-toxic
same,Vz,[15],0.33 L/kg
same,inhibition,DLD-1,Dose-dependent-effect
same,Tmax,[16],4.8 min
same,Activity,[17],Non-toxic
same,Activity,[18],Non-toxic
same,Activity,MDA-MB-436 [19],21.9%
same,Activity,MDA-MB-436 [20],17%
same,inhibition,[21],72.9%
same,Vd,[22],0.21 L/kg
same,Activity,MDA-MB-436 [23],53.32%
same,Activity,[24],Non-toxic
same,Activity,[25],Non-toxic
same,Activity,[26],Non-toxic
same,Activity,MDA-MB-436 [27],20.3%
same,Activity,[28],Non-toxic
same,AUC(0-t) at 96 h,[29],520 µg·h/mL
same,Activity,[30],Non-toxic
same,Activity,[31],Non-toxic
same,t1/2,[32],107.53 h
same,AUC(0-t) at 96 h,[33],510 µg·h/mL
same,bioavailability,[34],87.7%
same,Activity,[35],Non-toxic
